{"source": "ChEMBL document CHEMBL5727880", "about": "“Amide compounds as kinase inhibitors, compositions and methods of treatment” (2020)", "molecular_target": "Rho-associated protein kinase 2 (Homo sapiens, UniProt O75116)", "sequence (O75116 whole entry)": "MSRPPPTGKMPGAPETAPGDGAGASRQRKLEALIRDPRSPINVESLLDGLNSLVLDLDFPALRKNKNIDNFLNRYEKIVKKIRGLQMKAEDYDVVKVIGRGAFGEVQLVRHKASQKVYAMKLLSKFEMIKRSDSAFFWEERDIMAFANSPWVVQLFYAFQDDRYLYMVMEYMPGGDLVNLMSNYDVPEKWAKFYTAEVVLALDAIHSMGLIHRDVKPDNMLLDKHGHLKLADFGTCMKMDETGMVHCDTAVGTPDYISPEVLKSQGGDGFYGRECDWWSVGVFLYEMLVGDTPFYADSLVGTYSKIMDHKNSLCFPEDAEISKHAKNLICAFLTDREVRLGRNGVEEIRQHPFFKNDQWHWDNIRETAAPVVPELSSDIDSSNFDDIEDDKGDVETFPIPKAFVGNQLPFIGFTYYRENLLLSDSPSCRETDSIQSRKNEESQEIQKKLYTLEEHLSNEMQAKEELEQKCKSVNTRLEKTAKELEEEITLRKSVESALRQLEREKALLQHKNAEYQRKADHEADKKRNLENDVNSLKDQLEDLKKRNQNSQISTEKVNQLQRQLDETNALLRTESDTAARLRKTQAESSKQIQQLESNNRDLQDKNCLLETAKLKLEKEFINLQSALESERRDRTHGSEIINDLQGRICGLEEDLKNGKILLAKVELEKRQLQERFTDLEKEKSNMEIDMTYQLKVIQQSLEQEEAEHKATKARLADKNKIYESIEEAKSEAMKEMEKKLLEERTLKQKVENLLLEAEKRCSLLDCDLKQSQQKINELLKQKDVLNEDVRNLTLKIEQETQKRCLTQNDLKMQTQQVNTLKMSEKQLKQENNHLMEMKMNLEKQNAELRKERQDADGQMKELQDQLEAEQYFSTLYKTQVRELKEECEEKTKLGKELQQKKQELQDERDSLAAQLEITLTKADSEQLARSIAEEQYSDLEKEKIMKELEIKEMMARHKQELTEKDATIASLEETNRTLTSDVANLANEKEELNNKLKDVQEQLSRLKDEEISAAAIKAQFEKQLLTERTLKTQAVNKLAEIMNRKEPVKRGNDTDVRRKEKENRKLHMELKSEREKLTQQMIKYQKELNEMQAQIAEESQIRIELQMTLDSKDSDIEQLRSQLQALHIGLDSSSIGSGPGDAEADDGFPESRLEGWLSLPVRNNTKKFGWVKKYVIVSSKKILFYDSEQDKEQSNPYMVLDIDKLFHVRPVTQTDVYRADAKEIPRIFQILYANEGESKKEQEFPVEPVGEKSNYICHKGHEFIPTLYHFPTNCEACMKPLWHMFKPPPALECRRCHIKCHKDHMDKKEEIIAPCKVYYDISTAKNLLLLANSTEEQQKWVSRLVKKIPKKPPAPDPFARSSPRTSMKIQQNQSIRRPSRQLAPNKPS", "assay": "Kinase Inhibition Assay: The following assay protocol is for measuring the phosphorylation of a peptide substrate (FAM-[…]-OH wherein FAM is carboxyfluorescein). The peptide is >98% purity by Capillary Electrophoresis. The peptide is phosphorylated by the protein kinase ROCK1 or ROCK2. The ROCK1 or ROCK2 enzyme, substrate, and cofactors (ATP and Mg2+) are combined in a well of a microtiter plate and incubated for 3 hours at 25° C. in the presence or absence of an inhibitor compound. At the end of the incubation, the reaction is quenched by the addition of an EDTA-containing buffer. The substrate and product are separated and quantified electrophoretically using the microfluidic-based LABCHIP® 3000 Drug Discovery System from Caliper Life Sciences (Hopkinton, Mass.).The components of the assay mixture are:100 mM HEPES, pH 7.50.1% BSA0.01% Triton X-1001 mM DTT10 mM MgCl210 μM Sodium Orthovanadate10 LM Beta-Glycerophosphate5 μM ATP (for ROCK1) or 7 μM ATP (for ROCK2)1% DMSO (from compound)1.25 μM FAM-[…]-OH3 nM ROCK1 or 2.5 nM ROCK2 enzymeSubstrate and product peptides present in each sample are separated electrophoretically using the LABCHIP® 3000 capillary electrophoresis instrument. As substrate and product peptides are separated two peaks of fluorescence are observed. […]", "note": "pIC50: −log10 of the molar value."}
{"compound": "C[C@@H](NC(=O)c1ccc(-c2ccncc2)cc1)c1cccc(C(=O)NC2CCCC2)c1", "values": [{"measurement": "pIC50", "value": 8.92}]}
